Laboratory results taken from patent US20240042015A1 (Orna Therapeutics, Inc., priority 2020, published 2024).
Entries after “also recorded” stand apart in the source; their conditions may differ.

Tests used:
splenic immune cells = assay: In vivo Cre circRNA LNP transfection in Ai9 Cre reporter mice, tdTomato+ splenic immune cells; conditions: 0.5 mg/kg RNA intravenously, 48 hr
Method: Circular RNAs encoding Cre recombinase (Cre) are encapsulated into lipid nanoparticles as previously described. Female, 6-8 week old B6.Cg-Gt(ROSA)26Sortm9(CAG-tdTomato)Hze/J (Ai9) mice were dosed with lipid nanoparticles at 0.5 mg/kg RNA intravenously. Fluorescent tdTomato protein was transcribed and translated in Ai9 mice upon Cre recombination, meaning circular RNAs have been delivered to and translated in tdTomato+ cells. After 48 hr, mice were euthanized and the spleens were harvested, processed into a single cell suspension, and stained with various fluorophore-conjugated antibodies for immunophenotyping via flow cytometry.
Ai9 mice injected with PBS represented background tdTomato fluorescence.
FIG. 45C illustrates the proportion of additional splenic immune cell populations expressing tdTomato with Lipids 10a-27 and 10a-26 (mean+std. dev., n=3), which also include NK cells (NKp46+, TCR-B−), classical monocytes (CD11b+, Ly-6G−, Ly-6C_hi), nonclassical monocytes (CD11b+, Ly-6G−, Ly-6C_lo), neutrophils (CD11b+, Ly-6G+), and dendritic cells (CD11c+, MHC-II+).
Ai9 mice (B6.Cg-Gt(ROSA)26Sortm9(CAG-tdTomato)Hze/J, female, 6-8 weeks, n=3 per group) were injected i.v. with 0.5 mg/kg Cre circRNA LNPs or PBS. Ai9 mice transcribe and translate the fluorescent reporter tdTomato upon Cre recombination; meaning cells which are tdTomato+ have successfully been transfected with Cre circRNA. After 48 hours, mice were euthanized and their spleens were collected and manually processed into single cell suspensions. The splenocytes were stained for dead cells (LiveDead Fixable Aqua, Thermo) and with anti-mouse antibodies (TCR-B chain, BV421, H57-597; CD45, BV711, 30-F11; CD11b, BV785, ICRF44; NKp46, AF647, 29A1.4; CD19, APC/750, 6D5; TruStain FcX, 93; all antibodies from Biolegend) at 1:200 ratio. Flow cytometry was performed using an Attune Nxt Flow Cytometer (Thermo).

primary human T cells = assay: LNP transfection of primary human activated T cells with FLuc circRNA with or without ApoE3; format: cell-based; conditions: 4 independent donors
Method: Primary human T cells from independent donors were stimulated with aCD3/aCD28 and allowed to proliferate for 6 days in the presence of human serum and IL-2. Then, 100,000 cells were plated in a 96 well plate and LNPs containing circRNA coding for Firefly Luciferase (FLuc) were added to the cells at 200 ng RNA/well with or without Apolipoprotein E3 (ApoE3). After 24-hour incubation, luminescence was quantified using the Bright-Glo Luciferase Assay System (Promega) according to manufacturer's instructions and background luminescence from cells not treated with LNPs was subtracted. […] (See Example 70 for LNP formulation procesure, e.g., for 10a-27 (5.7A), 10a-26 (5.7A), 10a-27 (4.5D), and 10a-26 (4.5D) LNPs.)

CD-1 or c57BL/6J mice = assay: In vivo IVIS analysis of FLuc circRNA LNPs (whole body and ex vivo organs); conditions: for spleen to liver ratios: ex vivo IVIS analysis of tissues
Method: (§1) Lipid Nanoparticles (LNPs) were formed using a Precision Nanosystems Ignite instrument with a ‘NextGen’ mixing chamber. […] A 3:1 aqueous to ethanol mixing ratio was used. The formulated LNP then were dialyzed in 1 L of water and exchanged 2 times over 18 hours. Dialyzed LNPs were filtered using 0.2 µm filter. Prior to in vivo dosing, LNPs were diluted in PBS. LNP sizes were determined by dynamic light scattering. A cuvette with 1 mL of 20 μg/mL LNPs in PBS (pH 7.4) was measured for Z-average using the Malvern Panalytical Zetasizer Pro. The Z-average and polydispersity index were recorded.
as §1, with “formulated LNPs were” for “formulated LNP”, “then” for “then were”
as §1, with “formulated LNPs were” for “formulated LNP”, “then” for “then were”, “of 1×PBS” for “of water”
Female CD-1 or female c57BL/6J mice ranging from 22-25 g were dosed at 0.5 mg/kg RNA intravenously. Six hours after injection, mice were injected intraperitoneally with 200 μL of D-luciferin at 15 mg/mL concentration. 5 minutes after injection, mice were anesthetized using isoflurane, and placed inside the IVIS Spectrum In Vivo Imaging System (Perkin Elmer) with dorsal side up. Post 10 minutes injection, mice were scanned for luminescence. Mice were euthanized and organs were extracted within 25 minutes of luciferin injection to scan for luminescence in liver, spleen, kidneys, lungs, and heart. Images (FIGS. 33A-B, 34A-B, 35A-B) were analyzed using Living Images (Perkin Elmer) software. Regions of interest were drawn to obtain flux and average radiance and analyzed for biodistribution of protein expression (FIG. 32A-B).

SMILES | delivery of circular RNAs to splenic immune cell subsets (splenic immune cells) | spleen to liver ratios (CD-1 or c57BL/6J mice) | also measured
CCCCCCCCC(CCCCCC)C(=O)OCCCCCCN(CCCCCCOC(=O)C(CCCCCC)CCCCCCCC)CCCn1ccnc1C (stereo not drawn) [Lipid 10a-27, ((3-(2-methyl-1H-imidazol-1-yl)propyl)azanediyl)bis(hexane-6,1-diyl) bis(2-hexyldecanoate)] | effective at delivering circular RNAs to many splenic immune cell subsets |  | proportion of splenic immune cells expressing tdTomato (transfection) (splenic immune cells; 0.5 mg/kg): significantly higher myeloid and T cell transfection; also recorded: transfect significantly more splenic immune cells; Firefly luminescence (primary human T cells): generally produced higher luminescence
CCCCCCCCCOC(=O)CCCCCCCN(CCCCCCCC(=O)OC(CCCCCCCC)CCCCCCCC)CCCn1ccnc1C [Lipid 10a-54, heptadecan-9-yl 8-((3-(2-methyl-1H-imidazol-1-yl)propyl)(8-(nonyloxy)-8-oxooctyl)amino)octanoate] |  | maintaining the desired spleen to liver ratios | 
CCCCCCCCCOC(=O)CCCCCCCN(CCO)CCCCCCCC(=O)OC(CCCCCCCC)CCCCCCCC [Lipid 10b-15] | effective at delivering circular RNAs to many splenic immune cell subsets | maintaining the desired spleen to liver ratios | 
CCCCCCCCC(CCCCCC)C(=O)OCCCCCCN(CCCCCCOC(=O)C(CCCCCC)CCCCCCCC)CCCn1ccnc1 (stereo not drawn) [Lipid 10a-26, ((3-(1H-imidazol-1-yl)propyl)azanediyl)bis(hexane-6,1-diyl) bis(2-hexyldecanoate)] | effective at delivering circular RNAs to many splenic immune cell subsets | maintaining the desired spleen to liver ratios | proportion of splenic immune cells expressing tdTomato (transfection) (splenic immune cells): significantly higher myeloid and T cell transfection; ex vivo IVIS analysis of tissues, overall expression (CD-1 or c57BL/6J mice; 0.5 mg/kg RNA intravenously): increased overall expression; whole-body total flux (CD-1 or c57BL/6J mice; 0.5 mg/kg RNA intravenously, six hours, compared to LNPs made with lipids 22-S14 and 93-S14): increased whole-body total flux
CCCCCCCCCOC(=O)CCCCCCCN(CCCCCCCC(=O)OC(CCCCCCCC)CCCCCCCC)CCCn1ccnc1 [Lipid 10a-53, heptadecan-9-yl 8-((3-(1H-imidazol-1-yl)propyl)(8-(nonyloxy)-8-oxooctyl)amino)octanoate] |  | maintaining the desired spleen to liver ratios | 
